One assay relates to NCI-H1793. The assay is described as follows: relative viability (nuclei count vs DMSO), 5 days (fraction); higher = more cells survive. The note with it: first compound 8 µM. The procedure, abridged:
(§1)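 Lung cancer cell lines in 1536-well plates got either a single drug or a fixed anchor-drug dose together with five library-drug doses (not always all listed) in √10 steps, by pin tool, on the day after seeding. Nuclei were counted after 5 days, and relative viability is the treated-to-vehicle ratio of nuclei counts. Values are medians of duplicate plates.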
`CCCCCCCCCCCC1=C(O)C(=O)C=C(O)C1=O` [Embelin] + Cc1nc(Nc2ncc(C(=O)Nc3c(C)cccc3Cl)s2)cc(N2CCN(CCO)CC2)n1 [Dasatinib] (partner 0.075 µM) came in with a relative viability of 0.334.

Consider `CCCCCCCCCCCC1=C(O)C(=O)C=C(O)C1=O` [Embelin] + COc1cccc2cc(-c3nc([C@H]4CC[C@H](C(=O)O)CC4)n4ncnc(N)c34)[nH]c12 [OSI-027] (partner 0.5 µM), for which the relative viability stood at 0.243.

`CCCCCCCCCCCC1=C(O)C(=O)C=C(O)C1=O` [Embelin] + Nc1nc2[nH]cc(CCc3ccc(C(=O)N[C@@H](CCC(=O)O)C(=O)O)cc3)c2c(=O)[nH]1 [Pemetrexed] (partner 0.2 µM): the relative viability was found to be 0.37.

The next assay deals with NCI-H1944. The assay is described as above. The note with it: first compound 0.08 µM. The method in brief:
as §1
Compound `CCCCCCCCCCCC1=C(O)C(=O)C=C(O)C1=O` [Embelin] + N=C(N)NC(=N)NCCc1ccccc1 [Phenformin] (partner 250 µM) had a relative viability of 0.196.

As to `CCCCCCCCCCCC1=C(O)C(=O)C=C(O)C1=O` [Embelin] + CCNC(=O)c1noc(-c2cc(C(C)C)c(O)cc2O)c1-c1ccc(CN2CCOCC2)cc1 [Luminespib] (partner 0.01 µM), the relative viability worked out at 0.726.

In turn, `CCCCCCCCCCCC1=C(O)C(=O)C=C(O)C1=O` [Embelin] + Cc1nc(Nc2ncc(C(=O)Nc3c(C)cccc3Cl)s2)cc(N2CCN(CCO)CC2)n1 [Dasatinib] (partner 0.075 µM) gave a relative viability of 0.2.

`CCCCCCCCCCCC1=C(O)C(=O)C=C(O)C1=O` [Embelin] + COc1cccc2cc(-c3nc([C@H]4CC[C@H](C(=O)O)CC4)n4ncnc(N)c34)[nH]c12 [OSI-027] (partner 0.5 µM) had a relative viability of 0.41.

Compound `CCCCCCCCCCCC1=C(O)C(=O)C=C(O)C1=O` [Embelin] + Nc1nc2[nH]cc(CCc3ccc(C(=O)N[C@@H](CCC(=O)O)C(=O)O)cc3)c2c(=O)[nH]1 [Pemetrexed] (partner 0.2 µM) registered a relative viability of 0.545.

The assay is the same for the next values; noted with them: first compound 0.8 µM.
As for `CCCCCCCCCCCC1=C(O)C(=O)C=C(O)C1=O` [Embelin] + N=C(N)NC(=N)NCCc1ccccc1 [Phenformin] (partner 250 µM), the relative viability is 0.237.

On to `CCCCCCCCCCCC1=C(O)C(=O)C=C(O)C1=O` [Embelin] + CCNC(=O)c1noc(-c2cc(C(C)C)c(O)cc2O)c1-c1ccc(CN2CCOCC2)cc1 [Luminespib] (partner 0.01 µM), for which the relative viability was 0.849.

`CCCCCCCCCCCC1=C(O)C(=O)C=C(O)C1=O` [Embelin] + Cc1nc(Nc2ncc(C(=O)Nc3c(C)cccc3Cl)s2)cc(N2CCN(CCO)CC2)n1 [Dasatinib] (partner 0.075 µM): the relative viability is 0.221.

As for `CCCCCCCCCCCC1=C(O)C(=O)C=C(O)C1=O` [Embelin] + COc1cccc2cc(-c3nc([C@H]4CC[C@H](C(=O)O)CC4)n4ncnc(N)c34)[nH]c12 [OSI-027] (partner 0.5 µM), the relative viability was 0.462.

In turn, `CCCCCCCCCCCC1=C(O)C(=O)C=C(O)C1=O` [Embelin] + Nc1nc2[nH]cc(CCc3ccc(C(=O)N[C@@H](CCC(=O)O)C(=O)O)cc3)c2c(=O)[nH]1 [Pemetrexed] (partner 0.2 µM) registered a relative viability of 0.754.

Staying with this assay, now noted: first compound 2.53 µM.
Compound `CCCCCCCCCCCC1=C(O)C(=O)C=C(O)C1=O` [Embelin] + N=C(N)NC(=N)NCCc1ccccc1 [Phenformin] (partner 250 µM) yielded a relative viability of 0.203.

`CCCCCCCCCCCC1=C(O)C(=O)C=C(O)C1=O` [Embelin] + CCNC(=O)c1noc(-c2cc(C(C)C)c(O)cc2O)c1-c1ccc(CN2CCOCC2)cc1 [Luminespib] (partner 0.01 µM) returned a relative viability of 0.882.

The compound `CCCCCCCCCCCC1=C(O)C(=O)C=C(O)C1=O` [Embelin] + Cc1nc(Nc2ncc(C(=O)Nc3c(C)cccc3Cl)s2)cc(N2CCN(CCO)CC2)n1 [Dasatinib] (partner 0.075 µM) came in with a relative viability of 0.245.

For `CCCCCCCCCCCC1=C(O)C(=O)C=C(O)C1=O` [Embelin] + COc1cccc2cc(-c3nc([C@H]4CC[C@H](C(=O)O)CC4)n4ncnc(N)c34)[nH]c12 [OSI-027] (partner 0.5 µM), the relative viability was 0.358.

`CCCCCCCCCCCC1=C(O)C(=O)C=C(O)C1=O` [Embelin] + Nc1nc2[nH]cc(CCc3ccc(C(=O)N[C@@H](CCC(=O)O)C(=O)O)cc3)c2c(=O)[nH]1 [Pemetrexed] (partner 0.2 µM) came in with a relative viability of 0.578.

The same assay, now with this note: first compound 8 µM.
In the case of `CCCCCCCCCCCC1=C(O)C(=O)C=C(O)C1=O` [Embelin] + N=C(N)NC(=N)NCCc1ccccc1 [Phenformin] (partner 250 µM), the relative viability was 0.202.

Regarding `CCCCCCCCCCCC1=C(O)C(=O)C=C(O)C1=O` [Embelin] + CCNC(=O)c1noc(-c2cc(C(C)C)c(O)cc2O)c1-c1ccc(CN2CCOCC2)cc1 [Luminespib] (partner 0.01 µM), the relative viability is 0.78.

Regarding `CCCCCCCCCCCC1=C(O)C(=O)C=C(O)C1=O` [Embelin] + Cc1nc(Nc2ncc(C(=O)Nc3c(C)cccc3Cl)s2)cc(N2CCN(CCO)CC2)n1 [Dasatinib] (partner 0.075 µM), the relative viability was 0.195.

Regarding `CCCCCCCCCCCC1=C(O)C(=O)C=C(O)C1=O` [Embelin] + COc1cccc2cc(-c3nc([C@H]4CC[C@H](C(=O)O)CC4)n4ncnc(N)c34)[nH]c12 [OSI-027] (partner 0.5 µM), the relative viability turned out to be 0.425.

For the compound `CCCCCCCCCCCC1=C(O)C(=O)C=C(O)C1=O` [Embelin] + Nc1nc2[nH]cc(CCc3ccc(C(=O)N[C@@H](CCC(=O)O)C(=O)O)cc3)c2c(=O)[nH]1 [Pemetrexed] (partner 0.2 µM), the relative viability stood at 0.643.

The test system of the next assay is NCI-H1975. Described as above. The note with it: first compound 0.08 µM. The method in brief:
as §1
`CCCCCCCCCCCC1=C(O)C(=O)C=C(O)C1=O` [Embelin] + N=C(N)NC(=N)NCCc1ccccc1 [Phenformin] (partner 250 µM): the relative viability came out at 0.445.

In turn, `CCCCCCCCCCCC1=C(O)C(=O)C=C(O)C1=O` [Embelin] + CCNC(=O)c1noc(-c2cc(C(C)C)c(O)cc2O)c1-c1ccc(CN2CCOCC2)cc1 [Luminespib] (partner 0.01 µM) had a relative viability of 0.296.

On to `CCCCCCCCCCCC1=C(O)C(=O)C=C(O)C1=O` [Embelin] + Cc1nc(Nc2ncc(C(=O)Nc3c(C)cccc3Cl)s2)cc(N2CCN(CCO)CC2)n1 [Dasatinib] (partner 0.075 µM), for which the relative viability stood at 0.31.

As for `CCCCCCCCCCCC1=C(O)C(=O)C=C(O)C1=O` [Embelin] + COc1cccc2cc(-c3nc([C@H]4CC[C@H](C(=O)O)CC4)n4ncnc(N)c34)[nH]c12 [OSI-027] (partner 0.5 µM), the relative viability amounted to 0.728.

Turning to `CCCCCCCCCCCC1=C(O)C(=O)C=C(O)C1=O` [Embelin] + Nc1nc2[nH]cc(CCc3ccc(C(=O)N[C@@H](CCC(=O)O)C(=O)O)cc3)c2c(=O)[nH]1 [Pemetrexed] (partner 0.2 µM), the relative viability was 0.313.

The same assay, now with this note: first compound 0.8 µM.
Compound `CCCCCCCCCCCC1=C(O)C(=O)C=C(O)C1=O` [Embelin] + N=C(N)NC(=N)NCCc1ccccc1 [Phenformin] (partner 250 µM) displayed a relative viability of 0.413.

`CCCCCCCCCCCC1=C(O)C(=O)C=C(O)C1=O` [Embelin] + CCNC(=O)c1noc(-c2cc(C(C)C)c(O)cc2O)c1-c1ccc(CN2CCOCC2)cc1 [Luminespib] (partner 0.01 µM) returned a relative viability of 0.282.

The compound `CCCCCCCCCCCC1=C(O)C(=O)C=C(O)C1=O` [Embelin] + Cc1nc(Nc2ncc(C(=O)Nc3c(C)cccc3Cl)s2)cc(N2CCN(CCO)CC2)n1 [Dasatinib] (partner 0.075 µM) showed a relative viability of 0.396.

The record behind these values is the supplement of paper PMC10307832.
